Data taken from patent publication US20240124442A1, “TRICYCLIC-AMIDO-BICYCLIC PRMT5 INHIBITORS” (AMGEN INC., priority 2021, published 2024).
pIC50: −log10 of the molar value.

Columns and labels:
[1] = system: HCT116 MTAP null cells; experiment: HCT116 MTAP null cell line proliferation / cell viability (CellTiter-Glo, 6 days); type: cell-based; conditions: 144 h; HCT116 MTAP null cells, 6 days treatment, CellTiter-Glo cell viability; read-out: HCT-116 MTAP null IC50
Method in brief: (§1)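 WT vs MTAP-null HCT116, 6 d drug, CTG readout. 1:3 × 8–9 pts (top 1/10 μM) or 1:2 × 22 pts (top 10/50 μM). IC50 by 4PL or Hill −1 fit.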

[2] = system: HCT116 WT cells; experiment: HCT116 WT (parent) cell line proliferation / cell viability (CellTiter-Glo, 6 days); type: cell-based; conditions: Homo sapiens, HCT-116, 144 h, 6 days treatment
Method in brief: as §1

pIC50 [1] | pIC50 [2] | Structure (SMILES)
8.40 | 7.37 | CN(C(=O)c1cc2c(cc1Cl)nc(N)c1cnn(C)c12)[C@@H]1COc2cc(C(F)(F)F)ccc21 [Example 480, 4-amino-7-chloro-N,1-dimethyl-N-((3S)-6-(trifluoromethyl)-2,3-dihydro-1-benzofuran-3-yl)-1H-pyrazolo[4,3-c]quinoline-8-carboxamide]
8.30 | 7.35 | CN(C(=O)c1cc2c(cc1Cl)nc(N)c1cnn(C)c12)[C@@H]1COc2cc(OC(F)(F)F)ccc21 [Example 481, 4-amino-7-chloro-N,1-dimethyl-N-((3S)-6-(trifluoromethoxy)-2,3-dihydro-1-benzofuran-3-yl)-1H-pyrazolo[4,3-c]quinoline-8-carboxamide]
7.09 | 5.28 | CN(C(=O)c1cc2c(cc1F)nc(N)c1c2cnn1C)[C@@H]1COc2cc(Cl)c(Cl)cc21 [Example 483, 4-amino-N-((3S)-5,6-dichloro-2,3-dihydro-1-benzofuran-3-yl)-7-fluoro-N,3-dimethyl-3H-pyrazolo[3,4-c]quinoline-8-carboxamide]
7.11 | 5.31 | CN(C(=O)c1cc2c(cc1Cl)nc(N)c1c2cnn1C)[C@@H]1COc2cc(C(F)(F)F)ccc21 [Example 486, 4-amino-7-chloro-N,3-dimethyl-N-((3S)-6-(trifluoromethyl)-2,3-dihydro-1-benzofuran-3-yl)-3H-pyrazolo[3,4-c]quinoline-8-carboxamide]
7.33 | 5.54 | CN(C(=O)c1cc2c(cc1Cl)nc(N)c1c2cnn1C)[C@@H]1COc2cc(OC(F)(F)F)ccc21 [Example 487, 4-amino-7-chloro-N,3-dimethyl-N-((3S)-6-(trifluoromethoxy)-2,3-dihydro-1-benzofuran-3-yl)-3H-pyrazolo[3,4-c]quinoline-8-carboxamide]
7.89 | 6.17 | C[C@H]1OCc2c1c(N)nc1ccc(C(=O)N(C)[C@@H]3COCc4nc(C(F)(F)F)ccc43)cc21 [Example 488, (3R)-4-amino-N,3-dimethyl-N-((5S)-2-(trifluoromethyl)-5,8-dihydro-6H-pyrano[3,4-b]pyridin-5-yl)-1,3-dihydrofuro[3,4-c]quinoline-8-carboxamide]
7.31 | 5.65 | CN(C(=O)c1cc2c3c(c(N)nc2cn1)COC3)[C@@H]1COCc2cc(C#N)ccc21 [Example 489, 4-amino-N-((4S)-7-cyano-3,4-dihydro-1H-2-benzopyran-4-yl)-N-methyl-1,3-dihydrofuro[3,4-c][1,7]naphthyridine-8-carboxamide]
7.48 | 5.99 | CN(C(=O)c1cc2c3c(c(N)nc2cn1)COC3)[C@@H]1COCc2cc(C(F)(F)F)ccc21 [Example 490, 4-amino-N-methyl-N-((4S)-7-(trifluoromethyl)-3,4-dihydro-1H-2-benzopyran-4-yl)-1,3-dihydrofuro[3,4-c][1,7]naphthyridine-8-carboxamide]
7.37 | 5.69 | CN(C(=O)c1cc2c3c(c(N)nc2cn1)COC3)[C@@H]1COCc2nc(C(F)(F)F)ccc21 [Example 491, 4-amino-N-methyl-N-((5S)-2-(trifluoromethyl)-5,8-dihydro-6H-pyrano[3,4-b]pyridin-5-yl)-1,3-dihydrofuro[3,4-c][1,7]naphthyridine-8-carboxamide]
6.15 | 4.50 | CN(C(=O)c1cc2c3c(c(N)nc2cn1)COC3)[C@@H]1COCc2cc(C(F)(F)F)ncc21 [Example 492, 4-amino-N-methyl-N-((4S)-7-(trifluoromethyl)-3,4-dihydro-1H-pyrano[4,3-c]pyridin-4-yl)-1,3-dihydrofuro[3,4-c][1,7]naphthyridine-8-carboxamide]
7.04 | 5.69 | CN(C(=O)c1cnc2nc(N)c3c(c2c1)COC3)[C@@H]1COCc2cc(C(F)(F)F)ccc21 [Example 493, 4-amino-N-methyl-N-((4S)-7-(trifluoromethyl)-3,4-dihydro-1H-2-benzopyran-4-yl)-1,3-dihydrofuro[3,4-c][1,8]naphthyridine-8-carboxamide]
7.64 | 6.17 | CN(C(=O)c1cc2c3c(c(N)nc2cc1F)COC3)[C@@H]1COCc2nc(C(F)(F)F)ccc21 [Example 494, 4-amino-7-fluoro-N-methyl-N-((5S)-2-(trifluoromethyl)-5,8-dihydro-6H-pyrano[3,4-b]pyridin-5-yl)-1,3-dihydrofuro[3,4-c]quinoline-8-carboxamide]
7.82 | 6.41 | C[C@H]1OCc2c1c(N)nc1cc(F)c(C(=O)N(C)[C@@H]3COCc4nc(C(F)(F)F)ccc43)cc21 [Example 495, (3R)-4-amino-7-fluoro-N,3-dimethyl-N-((5S)-2-(trifluoromethyl)-5,8-dihydro-6H-pyrano[3,4-b]pyridin-5-yl)-1,3-dihydrofuro[3,4-c]quinoline-8-carboxamide]
8.30 | 6.69 | CN(C(=O)c1cc2c3c(c(N)nc2cc1Cl)COC3)[C@@H]1COCc2cc(C#N)ccc21 [Example 496, 4-amino-7-chloro-N-((4S)-7-cyano-3,4-dihydro-1H-2-benzopyran-4-yl)-N-methyl-1,3-dihydrofuro[3,4-c]quinoline-8-carboxamide]
6.46 | 4.71 | Cc1noc2c1c(N)nc1ccc(C(=O)N(C)[C@@H]3COCc4cc(C#N)ccc43)cc12 [Example 497, 4-amino-N-((4S)-7-cyano-3,4-dihydro-1H-2-benzopyran-4-yl)-N,3-dimethyl[1,2]oxazolo[4,5-c]quinoline-8-carboxamide]
6.73 | 5.04 | Cc1noc2c1c(N)nc1ccc(C(=O)N(C)[C@@H]3COCc4cc(C(F)(F)F)ccc43)cc12 [Example 498, 4-amino-N,3-dimethyl-N-((4S)-7-(trifluoromethyl)-3,4-dihydro-1H-2-benzopyran-4-yl)[1,2]oxazolo[4,5-c]quinoline-8-carboxamide]
8.40 | 6.82 | CN(C(=O)c1ccc2nc(N)c3cnn(C)c3c2c1)[C@@H]1COCc2cc(C(F)(F)F)ccc21 [Example 499, 4-amino-N,1-dimethyl-N-((4S)-7-(trifluoromethyl)-3,4-dihydro-1H-2-benzopyran-4-yl)-1H-pyrazolo[4,3-c]quinoline-8-carboxamide]
8.00 | 6.30 | CN(C(=O)c1ccc2nc(N)c3cnn(C)c3c2c1)[C@@H]1COCc2cc(C(F)(F)F)ncc21 [Example 500, 4-amino-N,1-dimethyl-N-((4S)-7-(trifluoromethyl)-3,4-dihydro-1H-pyrano[4,3-c]pyridin-4-yl)-1H-pyrazolo[4,3-c]quinoline-8-carboxamide]
8.40 | 6.85 | CCN(C(=O)c1ccc2nc(N)c3cnn(C)c3c2c1)[C@@H]1COCc2nc(C(F)(F)F)ccc21 [Example 501, 4-amino-N-ethyl-1-methyl-N-((5S)-2-(trifluoromethyl)-5,8-dihydro-6H-pyrano[3,4-b]pyridin-5-yl)-1H-pyrazolo[4,3-c]quinoline-8-carboxamide]
6.38 | 4.93 | CCN(C(=O)c1ccc2nc(N)c3cnn(C)c3c2c1)[C@H]1COCc2nc(C(F)(F)F)ccc21 [Example 502, 4-amino-N-ethyl-1-methyl-N-((5R)-2-(trifluoromethyl)-5,8-dihydro-6H-pyrano[3,4-b]pyridin-5-yl)-1H-pyrazolo[4,3-c]quinoline-8-carboxamide]
7.74 | 5.90 | Cn1ncc2c(N)nc3ccc(C(=O)N(C4CC4)[C@@H]4COCc5nc(C(F)(F)F)ccc54)cc3c21 [Example 503, 4-amino-N-cyclopropyl-1-methyl-N-((5S)-2-(trifluoromethyl)-5,8-dihydro-6H-pyrano[3,4-b]pyridin-5-yl)-1H-pyrazolo[4,3-c]quinoline-8-carboxamide]
8.40 | 6.84 | CC(C)CN(C(=O)c1ccc2nc(N)c3cnn(C)c3c2c1)[C@@H]1COCc2nc(C(F)(F)F)ccc21 [Example 504, 4-amino-1-methyl-N-(2-methylpropyl)-N-((5S)-2-(trifluoromethyl)-5,8-dihydro-6H-pyrano[3,4-b]pyridin-5-yl)-1H-pyrazolo[4,3-c]quinoline-8-carboxamide]
6.61 | 4.92 | CC(C)CN(C(=O)c1ccc2nc(N)c3cnn(C)c3c2c1)[C@H]1COCc2nc(C(F)(F)F)ccc21 [Example 505, 4-amino-1-methyl-N-(2-methylpropyl)-N-((5R)-2-(trifluoromethyl)-5,8-dihydro-6H-pyrano[3,4-b]pyridin-5-yl)-1H-pyrazolo[4,3-c]quinoline-8-carboxamide]
8.40 | 7.47 | CN(C(=O)c1cc2c(cc1F)nc(N)c1cnn(C)c12)[C@@H]1COCc2cc(C(F)(F)F)ccc21 [Example 506, 4-amino-7-fluoro-N,1-dimethyl-N-((4S)-7-(trifluoromethyl)-3,4-dihydro-1H-2-benzopyran-4-yl)-1H-pyrazolo[4,3-c]quinoline-8-carboxamide]
8.10 | 6.79 | CN(C(=O)c1cc2c(cc1F)nc(N)c1cnn(C)c12)[C@@H]1COCc2nc(C(F)(F)F)ccc21 [Example 507, 4-amino-7-fluoro-N,1-dimethyl-N-((5S)-2-(trifluoromethyl)-5,8-dihydro-6H-pyrano[3,4-b]pyridin-5-yl)-1H-pyrazolo[4,3-c]quinoline-8-carboxamide]
8.30 | 7.37 | CCN(C(=O)c1cc2c(cc1F)nc(N)c1cnn(C)c12)[C@@H]1COCc2nc(C(F)(F)F)ccc21 [Example 508, 4-amino-N-ethyl-7-fluoro-1-methyl-N-((5S)-2-(trifluoromethyl)-5,8-dihydro-6H-pyrano[3,4-b]pyridin-5-yl)-1H-pyrazolo[4,3-c]quinoline-8-carboxamide]
